Data taken from US20130261137A1, “Methods, Compounds and Compositions Relating to Activating a Latent Virus” (ULC BUSINESS PLC, priority 2010, published 2013).

Assays:
[1] = tested on: KSHV RTA in JSC-1 PYFP cells
[2] = tested on: HIV-1 LTR in J-Lat A72 cells; test: HIV-1 LTR assay, GFP expression in J-LAT A72 cells; conditions: for reduction of HIV LTR induction by 15026 compared to DMSO control: 15026 0.8 μM; for HIV-1 LTR induction by other antimicrotubule agents: taxol 0.8 μM, vinblastine 0.8 μM, ERK dependent (U0126)
[3] = tested on: microtubule network in JSC-1 cells; test: Confocal immunofluorescence microscopy of microtubule network; assay type: cell-based; conditions: 100 μM, 16 h
Procedure: JSC-1 cells were grown on coverslips coated with […] (Sigma) with DMSO or UCLB-15026 (100 μM) for 16 h. JSC-1 cells were then fixed in 3% paraformaldehyde, rinsed and permeabilized in 0.02% Triton-PBS. This was followed by blocking in 2% FCS-PBS, staining with anti-tubulin antibody (Sigma), washed, and then incubated with Alexa-488 conjugated goat anti-mouse secondary antibody (Molecular Probes) before being mounted onto slides using VectaShield mounting medium containing DAPI. Images were taken using confocal microscope (Leica).

[4] = tested on: KSHV RTA in JSC-1 PLuc cells; assay type: cell-based
[5] = tested on: KSHV RTA in BCBL-1 PLuc cells; assay type: cell-based
[6] = tested on: KSHV ORF 29 in JSC-1 cells; test: Semi-quantitative RT-PCR of KSHV late gene ORF 29 in JSC-1; assay type: cell-based; conditions: different concentrations
Source text: Briefly, RNA was extracted from 2×10^6 cells with TRIzol (Invitrogen) and treated with DNase (Ambion), followed by phenol extraction and ethanol precipitation. Serial dilution (3×10-fold) of oligonucleotide dT (Qiagen)-primed cDNA was used for PCR amplification (Promega) of KSHV ORF 29 using forward ([…]; SEQ ID NO. 1) and reverse ([…]; SEQ ID NO. 2) primers. All samples were normalized by PCR amplification of beta-2 microglobulin (β2M) using serially diluted cDNA with forward ([…]; SEQ ID NO. 3) and reverse ([…]; SEQ ID NO. 4) primers. The PCR cycle consisting of 95° C. for 30 seconds, 50° C. for 30 seconds, and 72° C. for 30 seconds was repeated 36 times for ORF 29, and 28 times for β2M. Both set of primers amplify across splice junction and the sizes (in bp) of the expected products are: ORF 29 (cDNA—399, DNA—3650) and β2M (cDNA—301, DNA—2178).

[7] = tested on: HIV-1 LTR in PBMCs from HIV-1 positive individuals; test: Ex vivo HIV-1 LTR induction assay, TAR RNA qPCR in PBMCs from HIV-1 positive individuals; assay type: cell-based; conditions: 100 μM, 24 h
[8] = tested on: tubulin; conditions: reported, reference 21; read-out: IC50 inhibiting tubulin polymerization; cited from earlier work
[9] = tested on: cells (cell cycle); conditions: reported for the compound; cited from earlier work
[10] = tested on: JSC-1 cells; test: Cell viability assay (CellTiter-Glo); conditions: for GCV cytotoxicity after pre-treatment with compound: pre-treatment 24 h (UCLB-15026 800 nM, taxol 80 nM), then GCV 20 or 100 μM, 48 and 72 h
[11] = tested on: HIV-1 LTR in U1 cells; test: HIV-1 LTR induction assay, TAR RNA qPCR in U1 cells; conditions: 15026 4 μM
[12] = tested on: HIV-1 LTR in ACH2 cells; test: HIV-1 LTR induction assay, TAR RNA qPCR in ACH2 cells; conditions: 15026 4 μM
[13] = tested on: HIV-1 LTR of subtype A in LGIT cells; test: HIV-1 LTR induction, GFP in LGIT cells, LTR subtype A; conditions: 24 hours; ERK-dependent (with or without U0126 10 μM)
[14] = tested on: HIV-1 LTR of subtype C in LGIT cells; test: HIV-1 LTR induction, GFP in LGIT cells, LTR subtype C; conditions: 24 hours; ERK-dependent (with or without U0126 10 μM)
[15] = tested on: HIV-1 LTR of subtype A/G in LGIT cells; test: HIV-1 LTR induction, GFP in LGIT cells, LTR subtype A/G; conditions: 24 hours; ERK-dependent (with or without U0126 10 μM)
[16] = tested on: JSC-1 PYFP cells; conditions: U0126 10 μM, 40 h
[17] = tested on: KSHV RTA in JSC-1 cells; assay type: cell-based
[18] = tested on: KSHV (rKSHV.219) in JSC-1 cells; assay type: cell-based

## O=S(=O)(NCCNC/C=C/c1ccc(Br)cc1)c1cccc2cnccc12 [H89]
[1]; 15026 0.8 μM
  reduction of KSHV RTA induction by 15026 compared to DMSO control: 35%
[2]
  reduction of HIV LTR induction by 15026 compared to DMSO control: 80%

## COc1ccc(-c2csc3c2-n2cccc2C3=O)cc1 [UCLB-15026]
[3]
  effect on microtubule network (anti-tubulin immunofluorescence): disrupts microtubule network
[4]
  RTA expression (% RLU normalized to TPA control/10^5 cells): activate RTA expression
[5]
  RTA induction (% RLU normalized to TPA control/10^5 cells): induced RTA
[6]
  expression of KSHV late gene ORF 29: dose-dependent expression
[7]
  TAR RNA copies compared with DMSO, three PBMC cultures: higher TAR RNA copies in two out of three PBMC cultures
[7]; PBMC culture
  TAR RNA copies compared with DMSO, volunteer 1: about 5 fold
  TAR RNA copies compared with DMSO, volunteer 2: about 200 fold
[1]
  KSHV reactivation (% YFP-positive cells normalized to TPA control): reactivated KSHV to similar levels
  concentration range of half their maximal activities (KSHV reactivation): nanomolar range
[8]
  IC50: 2900 nM
[9]
  cell cycle effect: accumulated in the G2/M phases of cell cycle
[10]
  GCV cytotoxicity after pre-treatment with compound: enhanced GCV cytotoxicity
[2]; 15026 4 μM, 24 hours
  HIV-1 LTR activity (GFP expression): induced LTR activity
[2]; UCLB-15026 at different concentrations, 24 or 40 h
  LTR-mediated GFP expression: substantially induced
[11]
  HIV-1 LTR activity (TAR RNA expression): induced LTR activity
[12]
  HIV-1 LTR activity (TAR RNA expression): induced LTR activity
[13]
  GFP expression driven by LTR of subtype A: induced GFP expression
[14]
  GFP expression driven by LTR of subtype C: induced GFP expression
[15]
  GFP expression driven by LTR of subtype A/G: induced GFP expression

## Nc1ncnc2c1ncn2[C@@H]1O[C@@H]2COP(O)(=S)O[C@H]2[C@H]1O (some centres unmarked) [Rp-cAMP]
[2]
  reduction of HIV LTR induction by 15026 compared to DMSO control: about 40%

## CC[C@]1(O)C[C@@H]2CN(CCc3c([nH]c4ccccc34)[C@@](C(=O)OC)(c3cc4c(cc3OC)N(C)[C@H]3[C@@](O)(C(=O)OC)[C@H](OC(C)=O)[C@]5(CC)C=CCN6CC[C@]43[C@@H]65)C2)C1 [vinblastine]
[1]
  KSHV RTA induction by other antimicrotubule agents: can induce
[2]; genistein 100 μM
  HIV-1 LTR induction by other antimicrotubule agents: can induce

## Nc1nc(O)c2ncn(COC(CO)CO)c2n1 [GCV, ganciclovir]
[10]; DMSO 24 h, then GCV 20 μM or 100 μM, 24, 48, 72 h
  effect of GCV alone on JSC-1 proliferation: no detrimental effect

## N#CC(=C(/N)Sc1ccccc1N)/C(C#N)=C(\N)Sc1ccccc1N [U0126]
[16]
  cell viability (trypan blue exclusion): no significant effect on cell viability
[2]; U0126 10 μM, 15026 4 μM
  effect of ERK inhibitor on LTR induction by 15026 (GFP): inhibited 15026 activity
[11]; U0126 10 μM
  effect of ERK inhibitor on LTR induction by 15026 (TAR RNA): inhibited 15026 activity
[12]; U0126 10 μM
  effect of ERK inhibitor on LTR induction by 15026 (TAR RNA): inhibited 15026 activity

## CCCC(=O)[O-].[Na+] [SB, sodium butyrate]
[17]
  KSHV RTA induction and induction kinetics (western blot): delayed-kinetics

## CCCCCCCCCCCCCC(=O)O[C@@H]1[C@@H](C)[C@@]2(O)[C@@H](C=C(CO)C[C@]3(O)C(=O)C(C)=C[C@@H]23)[C@@H]2C(C)(C)[C@]12OC(C)=O [TPA, 12-O-tetradecanoyl-phorbol-13-acetate]
[18]
  % RFP-positive cells: −1.8%
[17]
  KSHV RTA induction and induction kinetics (western blot): immediate-kinetics
  exposure required for KSHV induction: < 1 h

## O=c1c(-c2ccc(O)cc2)coc2cc(O)cc(O)c12 [genistein]
[1]
  KSHV RTA induction by other antimicrotubule agents: can induce
  KSHV lytic cycle induction (% YFP-positive cells normalized to TPA): can reactivate KSHV
[2]; genistein 100 μM, 24 h post-treatment
  HIV-1 LTR activity (% GFP-positive cells normalized to TPA): induction of HIV-1 LTR activity
[2]; genistein 100 μM
  HIV-1 LTR induction by other antimicrotubule agents: can induce

## CC(=O)O[C@H]1C(=O)[C@@]2(C)[C@H]([C@H](OC(=O)c3ccccc3)[C@]3(O)C[C@H](OC(=O)[C@H](O)[C@@H](NC(=O)c4ccccc4)c4ccccc4)C(C)=C1C3(C)C)[C@]1(OC(C)=O)CO[C@@H]1C[C@@H]2O [taxol, paclitaxel]
[4]
  RTA expression (% RLU normalized to TPA control/10^5 cells): activate RTA expression
[5]
  RTA induction (% RLU normalized to TPA control/10^5 cells): induced RTA
[6]
  expression of KSHV late gene ORF 29: dose-dependent expression
[1]
  KSHV reactivation (% YFP-positive cells normalized to TPA control): reactivated KSHV to similar levels
  concentration range of half their maximal activities (KSHV reactivation): nanomolar range
[10]
  GCV cytotoxicity after pre-treatment with compound: small but statistically significant increase in cell cytotoxicity
[2]; genistein 100 μM
  HIV-1 LTR induction by other antimicrotubule agents: induce transcriptional activities
